US20220062245A1, “AGENT FOR IMPROVING INFERTILITY, RECURRENT MISCARRIAGE, AND STATE OF PREGNANCY” (priority 2018, published 2022)
Entries after “also recorded” stand apart in the source; their conditions may differ.

How the values were obtained:
[1] = system: RPL (recurrent pregnancy loss) patient; conditions: cited from earlier work; for Outcome of earlier treatment: low-dose aspirin, heparin, prednisolone 5 mg/day, large-quantity γ-globulin 1 g/kg for 3 days, given in this order
[2] = system: Th1 and Th2 cells among CD4-positive cells; experiment: Analysis of Th1 cells and Th2 cells in patient blood by flow cytometry; format: in vivo, human
Protocol: Analysis of Th1 Cells and Th2 Cells
For the purpose of evaluating the baseline value of the Th1/Th2 cell ratio, a total of 10 ml of venous blood was collected. Th1 cells and Th2 cells were determined by detecting the production of intracellular interferon (IFN)-γ and IL-4.
Specific staining of lymphocytes was performed by incubating whole blood together with anti-CD4-PC5 or anti-CD8-PC5-conjugated monoclonal antibody (mAbs) (Beckman Coulter, Inc., Fullerton, Calif., USA). Red blood cells (RBCs) were removed by hemolysis (using FACS Lysing solution; Becton, Dickinson and Company, BD 134 Biosciences, Franklin Lake, N.J., USA), and lymphocytes were analyzed using flow cytometry (FACSCalibur; Becton, Dickinson and Company). Activated whole blood samples were surface-stained using anti-CD4-PC5-conjugate mAbs, and then RBC hemolysis and specific intracellular staining using Fast Immune (trademark) IFN-γ-FITC/IL-4-PE (Becton, Dickinson and Company) were carried out in sequence according to the manufacturer's instructions for use. Th1 cells were defined as CD4^+ lymphocytes accompanied by intracellular IFN-γ but not by intracellular IL-4. Th2 cells were detected as CD4^+ lymphocytes accompanied by intracellular IL-4 but not by intracellular IFN-γ. The ratio of intracellular IFN-γ-positive Th cells with respect to intracellular IL-4-positive Th cells was expressed as the Th1/Th2 cell ratio.

[3] = system: patients with five consecutive incidences of RIF (repeated implantation failure); conditions: treated from two days before embryo transplantation to day of pregnancy test; daily dose by Th1/Th2 cell ratio; 16/25 versus 0% (0/17) untreated; cited from earlier work
[4] = system: patient suffering from a blood type incompatible pregnancy with negative maternal Rho (D) and positive fetal Rho (D); experiment: Pregnancy course and fetal/neonatal outcome in blood type incompatible pregnancy treated with tacrolimus (Example 1); format: in vivo, human
Text: (§1) The patient is a person having blood type A. The patient suffering from a blood type incompatible pregnancy with negative maternal Rho (D) and positive fetal Rho (D) was subjected to the following treatments. That is, at the time of the first pregnancy, anti-D immunoglobulin was not administered during pregnancy, sensitization was effected before delivery, and the anti-D antibody titer at the time of delivery was 8-fold. In week 39, they gave birth by emergency cesarean section due to placental abruption of the upper placenta.
Two years later, […] hoped to have a second child but suffered from infecundity and was treated for sterility by in vitro fertilization; however, since the treatment was unsuccessful after five embryo transplantations, a close examination of the immune system was conducted. At that time, a marked increase (24.9) in the Th1/Th2 (Th1 32.4, Th2 1.3) ratio was recognized, the illness was judged as infecundity considered to be caused by an abnormality in the immune system, and a tacrolimus treatment was selected.
(§2) The anti-D antibody titer obtained immediately after the establishment of pregnancy was 4-fold; however, the titer reached 16-fold in week 24 and reached 32-fold in week 26 (FIG. 6, upper part). After that, migration of fetal antigens to the mother's body via the placenta was assumed to further increase, and preparation of plasmapheresis and fetal blood transfusion was initiated in preparation for a rapid increase in the antibody titer.
(§3) Furthermore, the blood flow velocity in the middle cerebral artery and the estimated body weight of the fetus were measured by fetal ultrasonography.

[5] = Concentration of tacrolimus in the cord blood by chemiluminescence immunoassay (ECLIA); format: in vivo, human; conditions: at delivery, mother on 5 mg/day oral
[6] = system: patient suffering from a blood type incompatible pregnancy with negative maternal Rho (D) and positive fetal Rho (D); experiment: Anti-D antibody titer by indirect Coombs test, Example 1 patient; format: in vivo, human; conditions: for Anti-D antibody titer: maternal blood, tacrolimus 4 mg/day oral
Protocol: Measurement of Anti-D Antibody Titer
The measurement is carried out by the indirect Coombs test. The indirect Coombs test is a test in which an anti-immunoglobulin antibody is added to a mixture of the blood serum of a patient and the blood of a healthy person to examine whether a hemagglutination reaction occurs (any irregular antibody present in the blood serum is detected) (for the Coombs test, see Nissan Women's Journal Vol. 59, No. 10, N-617-N-623).
as §1, §2, §3

[7] = system: NK cells; experiment: NK cell activity during pregnancy (Example 4); format: in vivo, human; conditions: Example 4 patient during pregnancy, tacrolimus 1 mg/day; normal value 18% to 40%; FIG. 8
[8] = system: patient having a medical history of pregnancy-induced hypertensive nephropathy and HELLP syndrome; experiment: Prevention or delay of onset of pregnancy-induced hypertension syndrome, HELLP syndrome and eclampsia (Example 4, Table 1); format: in vivo, human
Text: A patient is a person having a medical history of pregnancy-induced hypertensive nephropathy and HELLP syndrome. […] After the delivery, pulmonary edema, disseminated intravascular coagulation (DIC), and intraperitoneal bleeding, all of which are severe complications, were recognized, and the patient received treatments such as management using an artificial respirator, supplement of albumin, and blood component transfusion.
This time, in the hematologic examination findings before pregnancy, there were no abnormalities in all of the liver function, kidney function, and coagulation function, and abnormal findings were not observed in the examination items involved in infertility such as antiphospholipid antibody syndrome (anti-CL-IgG antibody, anti-CL-IgM antibody, anti-PS/PT antibody, anti-CL-β2GP1 antibody, LAC, anti-PE-IgG antibody, and anti-PE-IgM antibody), autoimmune diseases (anti-DNA antibody and antinuclear antibody), and coagulation dysfunction.
The circumstances of the first pregnancy and the pregnancy of this time are described in Table 1.
The ratio of Th1 (CD4g^+IFN-g^+)/Th2(CD4^+IL-4^+) in CD4-positive cells is 15.2/2.1 (normal value: less than 10.3), and clear immunological abnormalities were also not observed before pregnancy [Reference Literature 12b]; however, it was assumed that after implantation of a fertilized ovum, immunity of the mother's body would be activated, and immune abnormality between the mother's body and the fetus would suppress placental construction and functions thereof, causing fetal growth restriction and hypertension during pregnancy. Considering this, the patient was treated with 1 mg/day of tacrolimus from week 4 of pregnancy, for the purpose of controlling the immunity between the mother's body and the fetus after confirmation of pregnancy.
In this case, monotherapy was carried out with 1 mg/day of tacrolimus from the early stage of pregnancy, and combined treatment of low dose aspirin (LDA) intended for HDP prevention by bloodstream improvement was not carried out [Reference Literature 13b]. Regarding the pregnancy progress, there was no problem in the second trimester of pregnancy, where the patient developed HELLP syndrome in the previous pregnancy, and pregnancy progressed smoothly to the third trimester of pregnancy; however, the patient rapidly acquired HELLP syndrome similarly to the previous pregnancy, after week 33 of pregnancy.

[9] = pregnancy of this time, tacrolimus 1 mg/day, after parturition
[10] = pregnancy of this time, tacrolimus 1 mg/day, before parturition
[11] = tacrolimus 1 mg/day, after parturition
[12] = tacrolimus 1 mg/day, before parturition

## CC(=O)Oc1ccccc1C(=O)O [aspirin]
[1]
  Outcome of earlier treatment: not successful

## C[C@]12C=CC(=O)C=C1CC[C@@H]1[C@@H]2[C@@H](O)C[C@@]2(C)[C@H]1CC[C@]2(O)C(=O)CO [prednisolone]
[1]
  Outcome of earlier treatment: not successful

## C=CCC1/C=C(\C)CC(C)CC(OC)C2OC(O)(C(=O)C(=O)N3CCCCC3C(=O)OC(/C(C)=C/C3CCC(O)C(OC)C3)C(C)C(O)CC1=O)C(C)CC2OC (stereo not drawn) [tacrolimus, 17-Allyl-1,14-dihydroxy-12-[2-(4-hydroxy-3-methoxycyclohexyl)-1-methylvinyl]-23,25-dimethoxy-13,19,21,27-tetramethyl-11,28-dioxa-4-azatricyclo[22.3.1.04,9]octacos-18-ene-2,3,10,16-tetraone]
[2]; Example 1 patient, week 28 of pregnancy, on tacrolimus 4 mg/day
  Th1: tendency of increase again
[2]; Example 4 patient during pregnancy, tacrolimus 1 mg/day, FIG. 8
  Ratio (proportions) of Th1 and Th2 cells among CD4-positive cells: continuously decreased
[3]
  Clinical pregnancy rate: 64.0%
[4]; Example 1, tacrolimus 4 then 5 mg/day
  Body weight of child at birth: 2834 g
[4]; FIG. 7, estimated by fetal ultrasonography
  Body weight of the fetus in the weeks of pregnancy: smoothly increased
[4]; child exposed in utero to tacrolimus 4 to 5 mg/day
  Malformations of the child: no external malformations or visceral malformations
[4]; fetal ultrasonography during pregnancy, tacrolimus 4 then 5 mg/day
  Fetal anemia (blood flow velocity in the middle cerebral artery): corresponded to the number of weeks; also recorded: without observing any fetal anemia; also recorded: fetal anemia was not developed during the entire course of pregnancy
[4]; person, infecundity after five unsuccessful embryo transplantations, Th1/Th2 24.9, tacrolimus 4 mg/day oral
  Establishment of pregnancy by embryo transplantation: Pregnancy was established by a single embryo transplantation
[4]; without using plasma exchange, data not shown
  Pregnancy progress in RhD incompatible pregnancy: satisfactory pregnancy progress was obtained
[1]; tacrolimus 2 mg/day continuously during pregnancy, no other treatments
  Pregnancy progress: favorable pregnancy progress
[5]
  Concentration of tacrolimus in the cord blood: lower than or equal to the detection limit value
[6]; cord blood at delivery
  Anti-D antibody titer in the cord blood: double
[6]; immediately after the establishment of pregnancy
  Anti-D antibody titer: 4 fold
[6]; week 24 of pregnancy
  Anti-D antibody titer: 16 fold
[6]; week 26 of pregnancy
  Anti-D antibody titer: 32 fold
[7]
  NK cell activity: decreased in the second trimester of pregnancy and then conspicuously increased in the examination in week 32 of pregnancy; also recorded: decreased in the second trimester and then conspicuously increased from week 32 of pregnancy
[8]; pregnancy of this time, tacrolimus 1 mg/day from week 4
  Information on fetus: Fetal growth: −1.9 SD
[8]; pregnancy of this time, tacrolimus 1 mg/day from week 4, at birth
  Information on fetus: Body weight: 1490 g
[8]; [9]
  Complications after parturition: None
  Symptoms: Edema: Negligible
  Symptoms: Hypertension: Temporary
[8]; [10]
  Proteinuria initiated (weeks of pregnancy): 33 weeks of pregnancy
  Symptoms: Edema: Negligible
[8]; single administration of tacrolimus 1 mg/day, previous pregnancy untreated
  Delay of onset of HELLP syndrome compared to the previous pregnancy: about 13 weeks
[8]; tacrolimus 1 mg/day monotherapy from week 4 of pregnancy
  Proteinuria, edema, and hypertension during pregnancy progress: not observed until week 32 of pregnancy
[8]; [11]
  Blood examination: ALT: 833 U/L
  Blood examination: AST: 898 U/L
  Blood examination: Cr: 0.59 mg/dL
  Blood examination: Hb: 10.5 g/dL
  Blood examination: LDH: 1995 U/L
  Blood examination: Plt: 2.2 10^4/µL
  Blood examination: WBC: 8220 µL⁻¹
[8]; [12]
  Blood examination: ALT: 71 U/L
  Blood examination: AST: 65 U/L
  Blood examination: Cr: 1 mg/dL
  Blood examination: Hb: 11 g/dL
  Blood examination: LDH: 316 U/L
  Blood examination: Plt: 10 10^4/µL
  Blood examination: WBC: 8280 µL⁻¹

## heparin
[1]
  Outcome of earlier treatment: not successful
